The compounds below were run against Scavenger receptor class B member 1 (Mus musculus) (UniProt Q61009) (assay: SR-BI-mediated DiI-HDL uptake inhibitors, dose response, ldlA[mSR-BI] CHO cells, powder samples, set 4 (AID 588548)). Conditions: DiI-HDL uptake fluorescence, 3 h.
Chain of Scavenger receptor class B member 1 (Mus musculus) (Q61009 whole entry, looked up): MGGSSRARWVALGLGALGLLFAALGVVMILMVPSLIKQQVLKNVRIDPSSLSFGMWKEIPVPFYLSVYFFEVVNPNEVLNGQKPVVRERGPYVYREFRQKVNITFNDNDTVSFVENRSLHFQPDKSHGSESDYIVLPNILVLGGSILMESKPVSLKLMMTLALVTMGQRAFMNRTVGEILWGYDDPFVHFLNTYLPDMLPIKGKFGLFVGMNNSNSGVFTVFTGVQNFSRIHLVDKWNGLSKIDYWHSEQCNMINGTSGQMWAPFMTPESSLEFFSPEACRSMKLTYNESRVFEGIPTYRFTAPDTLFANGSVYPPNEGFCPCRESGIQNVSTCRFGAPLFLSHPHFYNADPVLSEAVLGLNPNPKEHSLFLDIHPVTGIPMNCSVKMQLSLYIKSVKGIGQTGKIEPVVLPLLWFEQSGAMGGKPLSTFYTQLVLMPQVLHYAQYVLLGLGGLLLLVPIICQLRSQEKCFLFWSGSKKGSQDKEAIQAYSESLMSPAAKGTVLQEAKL

Row | AC50 [µM] | Structure (SMILES)
1 | < 0.015 | COc1ccc(-c2nnn(CC(=O)N(CC(=O)NC3CCCC3)C3CCCCC3)n2)cc1OC
2 | 0.25 | CC(C(=O)NC1CCCC1)N(C(=O)Cn1nnc(-c2ccc(Cl)c(Cl)c2)n1)C1CCCCC1 (configuration not stated)
3 | 0.0635 | CC(C(=O)NC1CCCC1)N(C(=O)Cn1nnc(-c2ccc3c(c2)OC(F)(F)O3)n1)C1CCCCC1 (configuration not stated)
4 | 0.0285 | COc1ccc(-c2cc(CC(=O)N(C3CCCCC3)C(C)C(=O)NC3CCCC3)no2)cc1OC (configuration not stated)
5 | 0.0517 | CCCN1CCc2cc(-c3csc(NC(=O)c4cc(OC)cc(OC)c4)n3)ccc21
6 | 0.0295 | CCC(=O)N1CCc2cc(-c3csc(NC(=O)c4cc(OC)cc(OC)c4)n3)ccc21
7 | 0.0185 | CCC(=O)N1CCc2cc(-c3csc(NC(=O)c4cccc(OC(F)(F)F)c4)n3)ccc21
8 | 1.02 | CCC(=O)N1CCc2cc(-c3csc(/N=C(/OC)c4cc(OC)cc(OC)c4)n3)ccc21
9 | 14.6 | CC(C)(C)OC(=O)N1CCc2cc(-c3noc(NC(=O)c4ccco4)n3)ccc21
10 | < 0.015 | CCC(=O)N1CCc2cc(-c3csc(NC(=O)c4cc(OC)c(OC)c(OC)c4)n3)ccc21
11 | 0.0453 | CCC(=O)N1CCc2cc(-c3csc(NC(=O)c4cc5cccnc5o4)n3)ccc21
12 | 5.26 | COc1ccc(-c2nc(CC(=O)N(C3CCCCC3)C(C)C(=O)NC3CCCC3)cs2)cc1OC (configuration not stated)
13 | < 0.015 | CC(C(=O)NC1CCCC1)N(C(=O)Cn1nnc(-c2ccc3c(c2)OCO3)n1)C1CCCCC1 (configuration not stated)
14 | 0.0993 | CCC(=O)Nc1ccc(-c2csc(NC(=O)c3cccc(OC)c3)n2)cc1
15 | < 0.015 | CCNC(=O)N1CCc2cc(-c3csc(NC(=O)c4cc(OC)cc(OC)c4)n3)ccc21
16 | 0.0505 | COc1cc(OC)cc(C(=O)Nc2nc(-c3ccc4[nH]ccc4c3)cs2)c1

Row | AC50 [µM] | Structure (SMILES)
17 | 0.026 | O=C(CN(C(=O)Cn1nnc(-c2ccc3c(c2)OC(F)(F)O3)n1)C1CCCCC1)NC1CCCC1
18 | < 0.015 | COCC(=O)N1CCc2cc(-c3csc(NC(=O)c4cc(OC)cc(OC)c4)n3)ccc21
19 | 1.92 | CCC(=O)Nc1ccc(-c2csc(NC(=O)c3ccco3)n2)cc1
20 | 0.072 | COC(=O)N1CCc2cc(-c3csc(NC(=O)c4cc(OC)cc(OC)c4)n3)ccc21
21 | 0.0249 | COc1cc(OC)cc(C(=O)Nc2nc(-c3ccc4c(c3)CCN4C(C)=O)cs2)c1
22 | < 0.015 | O=C(Nc1nc(-c2ccc3c(c2)CCN3)cs1)c1ccco1
23 | < 0.015 | COc1cc(OC)cc(C(=O)Nc2nc(-c3ccc4c(c3)CCN4C(=O)OC(C)(C)C)cs2)c1
24 | 0.0286 | CCC(=O)N1CCc2cc(-c3csc(NC(=O)c4ccco4)n3)ccc21
25 | 0.05 | CCC(=O)N1CCc2cc(-c3csc(N(C)C(=O)c4cc(OC)cc(OC)c4)n3)ccc21
26 | 8.84 | CCC(=O)Nc1ccc(-c2csc(N)n2)cc1
27 | < 0.015 | O=C(CN(C(=O)Cn1nnc(-c2ccc3c(c2)OCO3)n1)C1CCCCC1)NC1CCCC1
28 | 3.18 | CC(C(=O)NC1CCCC1)N(C(=O)Cn1nnc(-c2ccc3c(c2)OCO3)n1)C1CCOCC1 (configuration not stated)
29 | < 0.015 | CCCCCCC1CCC/C1=N\NC(N)=S (configuration not stated)
30 | 0.302 | O=C(CN(C(=O)Cn1nnc(-c2ccc(Cl)c(Cl)c2)n1)C1CCCCC1)NC1CCCC1
31 | < 0.015 | COc1cc(OC)cc(C(=O)Nc2nc(-c3ccc4c(c3)CCN4C(=O)CN(C)C)cs2)c1
32 | 0.103 | COc1cc(OC)cc(C(=O)Nc2nc(-c3ccc4c(c3)CCN4)cs2)c1

From PubChem BioAssay AID588548 (Broad Institute, 2011)
